{"source": "paper PMC11394700", "about": "“Characterization of Stealth Liposome-Based Nanoparticles Encapsulating the ACAT1/SOAT1 Inhibitor F26: Efficacy and Toxicity Studies In Vitro and in Wild-Type Mice” (International Journal of Molecular Sciences, 2024)", "key": {"MEFs": {"test_system": "MEFs", "test": "XTT cytotoxicity assay in MEFs", "assay_type": "cell-based, mouse", "details": "for Effect on cell viability (XTT): MEFs, concentrations below 50 µM, 24 h", "experimental": "(§1) An XTT cell proliferation assay kit (measures mitochondrial redox activity in metabolically active cells) was purchased from ATCC (Catalog No. 30-1011K, Manassas, VA, USA). Cell toxicity assessment was performed according to the manufacturer’s protocol. MEFs were seeded in a 96-well plate, 2500 cells per well, and cultured in full growth medium for 24 h. […] After the treatment, XTT reagent was added to each well, and the plates were incubated at 37 °C for 4 h. Following the incubation, absorbance was measured by using a BioTek Synergy Neo2 Hybrid Multimode Reader (BioTek, Winooski, VT, USA)."}, "human ACAT2": {"test_system": "human ACAT2", "details": "cited from earlier work"}, "[1]": {"test_system": "primary mouse neuronal cells", "details": "concentrations up to 10 µM; cited from earlier work"}, "[2]": {"details": "WT mice, individual samples, cited from earlier work"}, "ACAT1": {"target": "T1, ACAT1 (Mus musculus, UniProt Q61263)", "T1 construct": "MEFs predominantly express ACAT1, not ACAT2; endogenous in cells; host or cells: mouse embryonic fibroblasts (MEFs)", "T1 sequence (Q61263 1-540)": "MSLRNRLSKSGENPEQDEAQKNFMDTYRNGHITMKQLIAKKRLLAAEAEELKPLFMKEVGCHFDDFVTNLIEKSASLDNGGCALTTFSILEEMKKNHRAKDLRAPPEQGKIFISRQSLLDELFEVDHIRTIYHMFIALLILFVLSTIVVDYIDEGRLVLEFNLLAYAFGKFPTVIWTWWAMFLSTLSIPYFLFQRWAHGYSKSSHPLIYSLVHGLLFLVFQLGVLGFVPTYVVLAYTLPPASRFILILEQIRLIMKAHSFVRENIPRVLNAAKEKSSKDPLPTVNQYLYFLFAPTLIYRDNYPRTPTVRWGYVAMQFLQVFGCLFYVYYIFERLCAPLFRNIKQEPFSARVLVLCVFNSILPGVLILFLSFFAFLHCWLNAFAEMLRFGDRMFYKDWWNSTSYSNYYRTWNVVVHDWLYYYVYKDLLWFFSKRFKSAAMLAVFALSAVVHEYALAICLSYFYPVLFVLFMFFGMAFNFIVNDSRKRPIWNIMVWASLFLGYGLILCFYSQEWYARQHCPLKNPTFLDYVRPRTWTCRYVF", "test": "ACAT activity by [3H] oleate pulse assay in MEFs", "assay_type": "cell-based", "protocol": "The [^3H] oleate pulse assay was performed as described [76, 77]. […] For the washout assay, cells were washed and incubated with a conditioned drug-free medium for a given amount of time. After the incubation, cells were pulsed with 10 µL of 10 mM [^3H] oleate/BSA (containing 4 µCi) for 2 h in a 37 °C water bath with 5% CO2. At the end of the pulse period, cells were placed on ice, washed three times with cold PBS, and lysed with 0.2 M NaOH. Lysates were aliquoted first for protein measurement and the remaining extract was neutralized to pH 7.0 by adding 3 M HCl and 1 M KH2PO4 at pH 7. Lipids were then extracted with chloroform:methanol (2:1) and water. Samples were vortex-mixed and centrifuged at 500 rpm for 10 min. The top phase was removed, and the bottom phase was blow-dried by nitrogen gas. Dried samples were dissolved in ethyl acetate and spotted on a thin-layer chromatography (TLC) plate (Miles Scientific Silica gel HL, Catalog No. P46911). The solvent system used was petroleum ether:ethyl ether:acetic acid (90:10:1). The cholesteryl ester band with an Rf value at 0.9 was visualized by iodine staining, scraped from the plate, and measured with a scintillation counter."}, "[3]": {"test": "XTT cytotoxicity assay in MEFs", "assay_type": "cell-based, mouse", "details": "mouse; MEFs, 150 µM, 24 h; read-out: Cell viability (XTT)", "experimental": "as §1"}, "[4]": {"test": "Plasma and brain pharmacokinetics after single IV dose (LC-MS/MS)", "assay_type": "in vivo, mouse", "details": "WT mice", "experimental": "After intravenous administration of F26, mice were perfused with PBS at scheduled time points. Plasma and brain tissue were collected, flash-frozen in liquid nitrogen, and stored at −80 °C until analysis. […] Calibrator and quality control (QC) samples were prepared in the appropriate C57BL/6 mouse matrix: pooled plasma (anticoagulant: K3-EDTA, Innovative Research) and brain homogenate. The brain tissues were homogenized at 0.1 g/mL in deionized water using stainless-steel beads and a Next Advance Bullet Blender. Samples were cleaned up and analytes were extracted using protein precipitation followed by nitrogen dry down and reconstitution. […] Samples were vortex-mixed for 5 min then centrifuged for 10 min at 21,130× g and a total of 200 µL of clear supernatant was transferred to new tubes and dried under nitrogen in a water bath at 45 °C. The dried residues were reconstituted in 80:20 methanol:water (plasma: 400 µL, brain: 200 µL), vortex-mixed for 15 s and centrifuged at 21,130× g for 5 min. Finally, 100 µL of supernatant was transferred to amber autosampler vials, and 2 µL was injected into the LC-MS/MS system. For the quantitative analysis, each sample was prepared in triplicate and each replicate was injected onto the LC-MS/MS system three times. Liquid chromatography was performed on a Thermo Scientific Vanquish Flex UHPLC system using buffers A = 0.1% formic acid in water and B = 0.1% formic acid in methanol. A Thermo Scientific Accucore C18 50 × 2.1 mm 2.6 µm column fitted with a 10 × 2.1 mm 2.6 µm C18 guard cartridge maintained at 40 °C was used. […] A Thermo Scientific TSQ Quantis triple quadrupole mass spectrometer was operated in positive ion mode with a collision pressure of 1.5 mTorr for quantification. […] The heated electrospray ionization (H-ESI) source was operated with a spray voltage of 3500 V, vaporizer temperature 400 °C, ion transfer tube temperature 300 °C, sheath gas 23, aux gas 12 and ion sweep gas 0.5 (gases are arbitrary units). The quantitative range for F26 was 0.5–500 ng/mL for plasma samples and 0.3–200 ng/mL for brain samples. QC samples were prepared at 1.5, 150, and 400 ng/mL for plasma and at 0.9, 80, and 150 ng/mL for brain."}, "[5]": {"test_system": "rat liver microsomal ACAT", "design": "method as in earlier work", "details": "F26 = compound 3 in ref; cited from earlier work"}, "[6]": {"details": "4 h after single IV NP F12511 46 mg/kg"}, "[7]": {"details": "12 h after single IV NP F12511 46 mg/kg"}, "[8]": {"details": "24 h after single IV NP F12511 46 mg/kg"}, "[9]": {"details": "4 h after single IV NP F26 51 mg/kg, individual samples, 51 mg/kg"}, "[10]": {"details": "12 h after single IV NP F26 51 mg/kg, individual samples, 51 mg/kg"}, "[11]": {"details": "24 h after single IV NP F26 51 mg/kg, individual samples, 51 mg/kg"}, "[12]": {"details": "48 h after single IV NP F26 51 mg/kg, individual samples, 51 mg/kg"}}, "note": "Values joined by “and” are separate entries in the source; they are usually repeats but may differ in a detail not shown here. Equal entries are not always repeated. Where two headings read alike, the source gives them in different places.", "data": [{"smiles": "CCCCCCCCCCCCS[C@H](C(=O)Nc1cc(C)c(O)c(C)c1C)c1ccccc1", "note": "[F12511, eflucimibe]", "values": [{"measurement": "Effect on cell viability (XTT)", "setting": "MEFs", "value": "neither F12511 nor F26 affected cell viability"}, {"measurement": "IC50", "setting": "human ACAT2", "value": 110, "unit": "nM"}, {"measurement": "Toxicity in primary mouse neuronal cells", "setting": "[1]", "value": "no detectable toxicity"}, {"measurement": "Brain Concentration", "setting": "[2]; [6]", "value": "56 ng/g and 83 ng/g and 98 ng/g and 95 ng/g"}, {"measurement": "Plasma Concentration", "setting": "[2]; [6]", "value": "11,185 ng/mL and 13,184 ng/mL and 12,883 ng/mL and 31,224 ng/mL"}, {"measurement": "Brain Concentration", "setting": "[2]; [7]", "value": "25 ng/g and 26 ng/g"}, {"measurement": "Plasma Concentration", "setting": "[2]; [7]", "value": "345 ng/mL and 487 ng/mL"}, {"measurement": "Brain Concentration", "setting": "[2]; [8]", "value": "7 ng/g and 9 ng/g"}, {"measurement": "Plasma Concentration", "setting": "[2]; [8]", "value": "101 ng/mL and 21 ng/mL"}]}, {"smiles": "CCCCCCCCCCCCS(=O)(=O)[C@](F)(C(=O)Nc1cc(C)c(O)c(C)c1C)c1ccccc1", "note": "[F26]", "values": [{"measurement": "IC50", "setting": "ACAT1; [3H] oleate pulse assay, MEFs (predominantly ACAT1), read-out: IC50 against ACAT in MEFs", "value": 3, "unit": "nM"}, {"measurement": "Potency as ACAT1 inhibitor compared to F12511 (fold)", "setting": "ACAT1; from IC50 values in MEFs", "value": "close to seven-fold"}, {"measurement": "viability at 24 h, 150 µM", "setting": "[3]", "value": 81, "unit": "%"}, {"measurement": "Concentration required to induce cell toxicity relative to that for ACAT1 inhibition", "setting": "MEFs; 50 µM or higher vs IC50 in MEFs", "value": "over 1000 times"}, {"measurement": "Effect on cell viability (XTT)", "setting": "MEFs", "value": "neither F12511 nor F26 affected cell viability"}, {"measurement": "Brain Concentration", "setting": "[4]; [9]", "value": 1148, "unit": "ng/g"}, {"measurement": "Brain-to-Plasma Ratio", "setting": "[4]; [9]", "value": 0.069}, {"measurement": "Plasma Concentration", "setting": "[4]; [9]", "value": "16,540 ng/mL"}, {"measurement": "Brain Concentration", "setting": "[4]; [10]", "value": 529, "unit": "ng/g"}, {"measurement": "Brain-to-Plasma Ratio", "setting": "[4]; [10]", "value": 0.125}, {"measurement": "Plasma Concentration", "setting": "[4]; [10]", "value": 4243, "unit": "ng/mL"}, {"measurement": "Brain Concentration", "setting": "[4]; [11]", "value": 347, "unit": "ng/g"}, {"measurement": "Brain-to-Plasma Ratio", "setting": "[4]; [11]", "value": 0.283}, {"measurement": "Plasma Concentration", "setting": "[4]; [11]", "value": "3218 ng/mL and 1226 ng/mL"}, {"measurement": "Brain Concentration", "setting": "[4]; [12]", "value": 86, "unit": "ng/g"}, {"measurement": "Brain-to-Plasma Ratio", "setting": "[4]; [12]", "value": 1.377}, {"measurement": "Plasma Concentration", "setting": "[4]; [12]", "value": 62, "unit": "ng/mL"}, {"measurement": "concentration at 4 h", "setting": "[4]; C57BL/6, mouse, brain, iv, 51 mg/kg, 4 h after single IV NP F26 51 mg/kg, individual samples, read-out: Brain Concentration", "value": 1120, "unit": "ng/g"}, {"measurement": "Kp at 4 h", "setting": "[4]; C57BL/6, mouse, brain, iv, 51 mg/kg, 4 h after single IV NP F26 51 mg/kg, individual samples, read-out: Brain-to-Plasma Ratio", "value": 0.061}, {"measurement": "concentration at 12 h", "setting": "[4]; C57BL/6, mouse, brain, iv, 51 mg/kg, 12 h after single IV NP F26 51 mg/kg, individual samples, read-out: Brain Concentration", "value": 671, "unit": "ng/g"}, {"measurement": "Kp at 12 h", "setting": "[4]; C57BL/6, mouse, brain, iv, 51 mg/kg, 12 h after single IV NP F26 51 mg/kg, individual samples, read-out: Brain-to-Plasma Ratio", "value": 0.147}, {"measurement": "concentration at 24 h", "setting": "[4]; C57BL/6, mouse, brain, iv, 51 mg/kg, 24 h after single IV NP F26 51 mg/kg, individual samples", "value": 571, "unit": "ng/g"}, {"measurement": "Kp at 24 h", "setting": "[4]; C57BL/6, mouse, brain, iv, 51 mg/kg, 24 h after single IV NP F26 51 mg/kg, individual samples, read-out: Brain-to-Plasma Ratio", "value": 0.178}, {"measurement": "concentration at 48 h", "setting": "[4]; C57BL/6, mouse, brain, iv, 51 mg/kg, 48 h after single IV NP F26 51 mg/kg, individual samples, read-out: Brain Concentration", "value": 59, "unit": "ng/g"}, {"measurement": "Kp at 48 h", "setting": "[4]; C57BL/6, mouse, brain, iv, 51 mg/kg, 48 h after single IV NP F26 51 mg/kg, individual samples, read-out: Brain-to-Plasma Ratio", "value": 1.6}, {"measurement": "Cmax", "setting": "[4]; C57BL/6, mouse, brain, single IV NP F26 51 mg/kg, read-out: Cmax in brain", "value": 1130, "unit": "ng/g"}, {"measurement": "half-life", "setting": "[4]; C57BL/6, mouse, brain, single IV NP F26 51 mg/kg, read-out: T1/2 in brain (converted)", "value": 632, "unit": "min"}, {"measurement": "Tmax", "setting": "[4]; C57BL/6, mouse, brain, single IV NP F26 51 mg/kg, read-out: Tmax in brain", "value": 4, "unit": "h"}, {"measurement": "concentration at 4 h", "setting": "[4]; C57BL/6, mouse, plasma, iv, 51 mg/kg, 4 h after single IV NP F26 51 mg/kg, individual samples, read-out: Plasma Concentration", "value": 18500, "unit": "ng/mL"}, {"measurement": "concentration at 12 h", "setting": "[4]; C57BL/6, mouse, plasma, iv, 51 mg/kg, 12 h after single IV NP F26 51 mg/kg, individual samples, read-out: Plasma Concentration", "value": 4570, "unit": "ng/mL"}, {"measurement": "concentration at 48 h", "setting": "[4]; C57BL/6, mouse, plasma, iv, 51 mg/kg, 48 h after single IV NP F26 51 mg/kg, individual samples, read-out: Plasma Concentration", "value": 37, "unit": "ng/mL"}, {"measurement": "Tmax", "setting": "[4]; C57BL/6, mouse, plasma, single IV NP F26 51 mg/kg, non-compartmental, n = 2, read-out: Tmax in plasma", "value": 4, "unit": "h"}, {"measurement": "AUC(0-t)", "setting": "[4]; C57BL/6, mouse, plasma, single IV NP F26 51 mg/kg, read-out: AUClast in plasma", "value": 229, "unit": "µg·h/mL"}, {"measurement": "Cmax", "setting": "[4]; C57BL/6, mouse, plasma, single IV NP F26 51 mg/kg, read-out: Cmax in plasma", "value": 17500, "unit": "ng/mL"}, {"measurement": "half-life", "setting": "[4]; C57BL/6, mouse, plasma, single IV NP F26 51 mg/kg, read-out: T1/2 in plasma (converted)", "value": 285, "unit": "min"}, {"measurement": "AUClast in brain", "setting": "[4]; single IV NP F26 51 mg/kg", "value": "23,398.14 ng.h/g"}, {"measurement": "Potency for inhibiting rat liver microsomal ACAT", "setting": "[5]", "value": "more potent than F12511"}]}]}
